Results on 21 compounds are retold here after patent US8354416B2 (Glaxo Group Limited, priority 2005, dated 2013).

The structures appear in SMILES notation. Counter-ions that a name gives are not always drawn.

This assay has as its system influx of neutrophils to the lung in LPS-challenged rats. Kind of assay: Rat LPS neutrophilia model. It is filed as in vivo. Conditions: intratracheal, LPS aerosol 100 ug/ml, in at least one of the range of conditions tested, significance p<0.05. As to the method:
Rat LPS Neutrophilia Model
The effect of compounds on the influx of neutrophils to the lung in LPS-challenged rats is evaluated as follows. The test compound is suspended in one of the following solutions: 0.5% tween 80/PBS, 0.5% tween 80/saline, 10% EtOH/saline (with pH adjusted to 2.0, or 8.0 with HCl, or unadjusted), Saline (pH 2.0, 6.5 or 8.0, 0.5% Tragacanth, 1% DMSO/20% Encapsin/Saline, or acidified 5% Tragacanth. The suspension process may be aided by the use of a glass homogenizer. For intratracheal administration, the animals are anesthetized with inhaled isoflurane and placed in a supine position, the trachea is intubated with a steel gavage needle (1.5 inch, 22 gauge, small ball) or a Penn-Century Microsprayer Aerosolizer (model IA-1B) and 200 ul of dosing solution is delivered. The animals are visually monitored during the recovery process, which typically occurs within two minutes. It is noted that the test compounds may be alternatively administered via the microsprayer in a dry powder blend with a suitable excipient, such as lactose.
Rats treated with compound or vehicle (15 min-24 hours pretreatment) are exposed to an LPS aerosol (100 ug/ml) for 15 min. Four hours later the rats are euthanized with pentobarbital (100 mg/kg, i.p.) and the airways are lavaged with 5 washes of 5 ml of phosphate buffered saline. The harvested cells are stained (Diffquick) and counted to determine total and differential cell data. […] Inhibition of neutrophil levels relative to no compound controls is calculated based on the differential counts.
The data is obtained as % inhibition using a particular concentration and pretreat time.

Turning to `Cc1ccc(NC(=O)c2ccsc2)cc1-c1nc(NC2CC(C)(C)NC(C)(C)C2)nc2c1ccc(=O)n2-c1c(F)cccc1F` [31(e), N-(3-{8-(2,6-difluorophenyl)-7-oxo-2-[(2,2,6,6-tetramethyl-4-piperidinyl)amino]-7,8-dihydropyrido[2,3-d]pyrimidin-4-yl}-4-methylphenyl)-3-thiophenecarboxamide], the “inhibition of neutrophilia (neutrophil levels in airway lavage relative to no compound controls)” value is listed as “statistically significant inhibition of neutrophilia”. Take `CCCNC(=O)c1ccc(C)c(-c2nc(NCCNC)nc3c2ccc(=O)n3-c2c(F)cccc2F)c1` [56(d), 3-(8-(2,6-difluorophenyl)-2-{[2-(methylamino)ethyl]amino}-7-oxo-7,8-dihydropyrido[2,3-d]pyrimidin-4-yl)-4-methyl-N-propylbenzamide]: the “inhibition of neutrophilia (neutrophil levels in airway lavage relative to no compound controls)” value is “statistically significant inhibition of neutrophilia”. As for `Cc1ccc(C(=O)Nc2nccs2)cc1-c1nc(NCc2ncc[nH]2)nc2c1ccc(=O)n2-c1c(F)cccc1F` [79(c), 3-{8-(2,6-difluorophenyl)-2-[(1H-imidazol-2-ylmethyl)amino]-7-oxo-7,8-dihydropyrido[2,3-d]pyrimidin-4-yl}-4-methyl-N-1,3-thiazol-2-ylbenzamide], the “inhibition of neutrophilia (neutrophil levels in airway lavage relative to no compound controls)” value is “statistically significant inhibition of neutrophilia”. Regarding `CNC1CCN(c2nc(-c3cc(C(=O)NC(C)C)ccc3C)c3ccc(=O)n(-c4c(F)cccc4F)c3n2)CC1` [113(b), 3-{8-(2,6-difluorophenyl)-2-[4-(methylamino)-1-piperidinyl]-7-oxo-7,8-dihydropyrido[2,3-d]pyrimidin-4-yl}-4-methyl-N-(1-methylethyl)benzamide], the “inhibition of neutrophilia (neutrophil levels in airway lavage relative to no compound controls)” value is “statistically nonsignificant inhibition of neutrophilia”. As to `Cc1ccc(C(=O)NC(C)C)cc1-c1nc(N2CCC(N3CCC(C)CC3)CC2)nc2c1ccc(=O)n2-c1c(F)cccc1F` [163(c), 3-[8-(2,6-difluorophenyl)-2-(4-methyl-1,4′-bipiperidin-1′-yl)-7-oxo-7,8-dihydropyrido[2,3-d]pyrimidin-4-yl]-4-methyl-N-(1-methylethyl)benzamide], the “inhibition of neutrophilia (neutrophil levels in airway lavage relative to no compound controls)” value is on record as “statistically nonsignificant inhibition of neutrophilia”.

Consider `CNCCNc1nc(-c2cc(C(=O)NCC3CC3)ccc2C)c2ccc(=O)n(-c3c(F)cccc3F)c2n1` [Example 4], for which the “inhibition of neutrophilia (neutrophil levels in airway lavage relative to no compound controls)” value is “statistically significant inhibition of neutrophilia”.

As to `Cc1ccc(C(=O)NC2CC2)cc1-c1nc(N2CCC(N)CC2)nc2c1ccc(=O)n2-c1c(F)cccc1F` [Example 22, 3-[2-(4-amino-1-piperidinyl)-8-(2,6-difluorophenyl)-7-oxo-7,8-dihydropyrido[2,3-d]pyrimidin-4-yl]-N-cyclopropyl-4-methylbenzamide], the “inhibition of neutrophilia (neutrophil levels in airway lavage relative to no compound controls)” value was “statistically significant inhibition of neutrophilia”.

Regarding `Cc1ccc(C(=O)NC2CC2)cc1-c1nc(NCc2ncc[nH]2)nc2c1ccc(=O)n2-c1c(F)cccc1F` [Example 23, N-cyclopropyl-3-{8-(2,6-difluorophenyl)-2-[(1H-imidazol-2-ylmethyl)amino]-7-oxo-7,8-dihydropyrido[2,3-d]pyrimidin-4-yl}-4-methylbenzamide], the “inhibition of neutrophilia (neutrophil levels in airway lavage relative to no compound controls)” value is listed as “statistically nonsignificant inhibition of neutrophilia”. For `CCCNCCNc1nc(-c2cc(C(=O)NC3CC3)ccc2C)c2ccc(=O)n(-c3c(F)cccc3F)c2n1` [Example 24, N-cyclopropyl-3-(8-(2,6-difluorophenyl)-7-oxo-2-{[2-(propylamino)ethyl]amino}-7,8-dihydropyrido[2,3-d]pyrimidin-4-yl)-4-methylbenzamide] the value was “statistically nonsignificant inhibition of neutrophilia”; for `Cc1ccc(C(=O)NC2CC2)cc1-c1nc(NCCN(C)C)nc2c1ccc(=O)n2-c1c(F)cccc1F` [Example 25], “statistically nonsignificant inhibition of neutrophilia”; for `Cc1ccc(C(=O)NCC2CC2)cc1-c1nc(N2CCC(N)CC2)nc2c1ccc(=O)n2-c1c(F)cccc1F` [Example 27, 3-[2-(4-amino-1-piperidinyl)-8-(2,6-difluorophenyl)-7-oxo-7,8-dihydropyrido[2,3-d]pyrimidin-4-yl]-N-(cyclopropylmethyl)-4-methylbenzamide], “statistically significant inhibition of neutrophilia”. For the compound `Cc1ccc(C(=O)NCCc2ccccc2)cc1-c1nc(NC2CC(C)(C)NC(C)(C)C2)nc2c1ccc(=O)n2-c1c(F)cccc1F` [Example 28, 3-{8-(2,6-difluorophenyl)-7-oxo-2-[(2,2,6,6-tetramethyl-4-piperidinyl)amino]-7,8-dihydropyrido[2,3-d]pyrimidin-4-yl}-4-methyl-N-(2-phenylethyl)benzamide], the “inhibition of neutrophilia (neutrophil levels in airway lavage relative to no compound controls)” value is “statistically nonsignificant inhibition of neutrophilia”.

Regarding `CNCCNc1nc(-c2cc(C(=O)NCCc3ccccc3)ccc2C)c2ccc(=O)n(-c3c(F)cccc3F)c2n1` [Example 29, 3-(8-(2,6-difluorophenyl)-2-{[2-(methylamino)ethyl]amino}-7-oxo-7,8-dihydropyrido[2,3-d]pyrimidin-4-yl)-4-methyl-N-(2-phenylethyl)benzamide], the “inhibition of neutrophilia (neutrophil levels in airway lavage relative to no compound controls)” value is recorded as “statistically significant inhibition of neutrophilia”. For the compound `Cc1ccc(NC(=O)c2ccsc2)cc1-c1nc(N2CCC(N)CC2)nc2c1ccc(=O)n2-c1c(F)cccc1F` [Example 32, N-{3-[2-(4-amino-1-piperidinyl)-8-(2,6-difluorophenyl)-7-oxo-7,8-dihydropyrido[2,3-d]pyrimidin-4-yl]-4-methylphenyl}-3-thiophenecarboxamide], the “inhibition of neutrophilia (neutrophil levels in airway lavage relative to no compound controls)” value is listed as “statistically nonsignificant inhibition of neutrophilia”. For `Cc1ccc(C(=O)NC(C)C)cc1-c1nc(N(C)CCCN(C)C)nc2c1ccc(=O)n2-c1c(F)cccc1F` [Example 34, 3-{8-(2,6-difluorophenyl)-2-[[3-(dimethylamino)propyl](methyl)amino]-7-oxo-7,8-dihydropyrido[2,3-d]pyrimidin-4-yl}-4-methyl-N-(1-methylethyl)benzamide], the “inhibition of neutrophilia (neutrophil levels in airway lavage relative to no compound controls)” value was “statistically significant inhibition of neutrophilia”. As for `Cc1ccc(NC(=O)c2cccc3cc[nH]c23)cc1-c1nc(NC(CO)CO)nc2c1ccc(=O)n2-c1c(F)cccc1F` [Example 44, N-[3-(8-(2,6-difluorophenyl)-2-{[2-hydroxy-1-(hydroxymethyl)ethyl]amino}-7-oxo-7,8-dihydropyrido[2,3-d]pyrimidin-4-yl)-4-methylphenyl]-1H-indole-7-carboxamide trifluoroacetate], the “inhibition of neutrophilia (neutrophil levels in airway lavage relative to no compound controls)” value is listed as “statistically significant inhibition of neutrophilia”.

Turning to `CNCCNc1nc(-c2cc(C(=O)NC(C)C)ccc2C)c2ccc(=O)n(-c3c(F)cccc3F)c2n1` [Example 57, 3-(8-(2,6-difluorophenyl)-2-{[2-(methylamino)ethyl]amino}-7-oxo-7,8-dihydropyrido[2,3-d]pyrimidin-4-yl)-4-methyl-N-(1-methylethyl)benzamide], the “inhibition of neutrophilia (neutrophil levels in airway lavage relative to no compound controls)” value is given as “statistically significant inhibition of neutrophilia”. As for `CNCCNc1nc(-c2cc(C(=O)NC3CCCC3)ccc2C)c2ccc(=O)n(-c3c(F)cccc3F)c2n1` [Example 58, N-cyclopentyl-3-(8-(2,6-difluorophenyl)-2-{[2-(methylamino)ethyl]amino}-7-oxo-7,8-dihydropyrido[2,3-d]pyrimidin-4-yl)-4-methylbenzamide], the “inhibition of neutrophilia (neutrophil levels in airway lavage relative to no compound controls)” value is on record as “statistically significant inhibition of neutrophilia”. For `CNCCNc1nc(-c2cc(C(=O)NCc3ccccc3)ccc2C)c2ccc(=O)n(-c3c(F)cccc3F)c2n1` [Example 59, 3-(8-(2,6-difluorophenyl)-2-{[2-(methylamino)ethyl]amino}-7-oxo-7,8-dihydropyrido[2,3-d]pyrimidin-4-yl)-4-methyl-N-(phenylmethyl)benzamide] the value was “statistically significant inhibition of neutrophilia”. Turning to `CNCCNc1nc(-c2cc(C(=O)Nc3ccc(F)cc3)ccc2C)c2ccc(=O)n(-c3c(F)cccc3F)c2n1` [Example 60, 3-(8-(2,6-difluorophenyl)-2-{[2-(methylamino)ethyl]amino}-7-oxo-7,8-dihydropyrido[2,3-d]pyrimidin-4-yl)-N-(4-fluorophenyl)-4-methylbenzamide], the “inhibition of neutrophilia (neutrophil levels in airway lavage relative to no compound controls)” value is given as “statistically significant inhibition of neutrophilia”. As for `CNCCNc1nc(-c2cc(C(=O)Nc3nccs3)ccc2C)c2ccc(=O)n(-c3c(F)cccc3F)c2n1` [Example 61, 3-(8-(2,6-difluorophenyl)-2-{[2-(methylamino)ethyl]amino}-7-oxo-7,8-dihydropyrido[2,3-d]pyrimidin-4-yl)-4-methyl-N-1,3-thiazol-2-ylbenzamide], the “inhibition of neutrophilia (neutrophil levels in airway lavage relative to no compound controls)” value was “statistically significant inhibition of neutrophilia”.
